Reference: patent publication US8548745B2, “Visual-servoing optical microscopy” (The Regents of the University of California, priority 2000, dated 2013)

What was measured:
MCF-7 ADR (MDR) cells = assay: VSOM MDR assay (MDR Assay Beta-Test kit), calcein accumulation, run 2; conditions: for calcein accumulation in selected single cells on exposure to modulator: two of four selected single cell response curves, run 2, CAM+V (syringe #5) or CAM+MK
Method: Both runs used the pump schedule. […] The red line in each case represents the average of all the cell responses in the entire field of view.
The MDR Assay β-Test kit was also tested in a VSOM experiment, as described herein. […] Pumps are turned on and off at specified flow rates according to a pre-programmed recipe, or based on real-time analysis of individual cell responses. The CAM, V, and MK concentrations used are noted in the figure. The three exposures to CAM were 900 seconds (20 min) each, and thus the total exposure to CAM was 60 min. The black windows at the bottom of the Figure show the mean response of all cells in the field of view.
The plot and images were continuously refreshed and updated during the experiment. […] However, the mean cellular fluorescence of each cell was monitored during VSOM experiments, and making deviations from the mean easily detectable. […] Such cells are unable to retain calcein, and it leaks out, causing the fluorescence signal to drop.

MCF-7 WTC (DS) cells = assay: VSOM MDR assay (MDR Assay Beta-Test kit), calcein accumulation, run 1; type: cell-based, human; conditions: run 1, N=336, three CAM exposures
Excerpt: Both runs used the pump schedule.

DoHH2 lymphoma = conditions: full phosphorothioate 18-mer; severe immunodeficient mice (Raynaud et al.); cited from earlier work
mRNA translation = conditions: cell-free system (Mologni et al.); only when both PNA-ODNs are simultaneously present; cited from earlier work
MCF-7 WTC cells = assay: ADR visual servoing experiment, CAM perfusion until average MI threshold; type: cell-based, human; conditions: 1 μM CAM in DBPSGP perfused at 0.5 mL/min
Method: MCF-7 WTC cells were grown in 35 mm cell culture dishes, and were pre-stained with H42. After an approximately 1 hr pre-incubation with H42, cells were rinsed with DPBSGP and were placed in the warm microscope chamber. The ADR program successfully operated in the following fashion. Three digital images (360 nm excitation, 490 nm excitation, and transmitted light, brightfield) were acquired at regular specified intervals through this experiment and all the H42 stained nuclei were detected and segmented before the next image interval. The nuclear contours for each nucleus that were delineated in the blue channel were used to calculate a mean cellular fluorescence intensity value from the green channel (MI). An initial perfusion of DBPSGP solution only (syringe #1) was performed at 1.0 mL/min for 8.3 minutes, (as specified by the user), and then syringe #1 was stopped. Next, a perfusion of DBPSGP solution containing 1 μM CAM (syringe #2) was begun at 0.5 mL/min. When the average MI of all the cells reached a specified threshold, syringe #2 was stopped via successful visual servoing. It took 13.9 minutes for the cells to accumulate sufficient CAM, and for the system to detect sufficient intracellular CAM (in the nuclear region), before the system successfully stopped syringe #2, and restarted syringe #1. After 11.4 min (as specified) the system stopped syringe #1 again. […]

In the case of `CN(C)C(=O)CCSC(SCCC(=O)O)c1cccc(/C=C/c2ccc3ccc(Cl)cc3n2)c1` (centres unmarked) [MK-571], the “calcein accumulation in selected single cells on exposure to modulator” value (MCF-7 ADR (MDR) cells) is reported as “not inhibited”.

In the case of `O=C(O)CN(CC(=O)O)Cc1cc2c(cc1O)Oc1cc(O)c(CN(CC(=O)O)CC(=O)O)cc1C21OC(=O)c2ccccc21` [calcein], the “calcein accumulation (mean cellular fluorescence, mean of all cells in field)” value (MCF-7 WTC (DS) cells) is reported as 240±82 and the “calcein accumulation (mean cellular fluorescence, mean of all cells in field)” value (MCF-7 ADR (MDR) cells; MDR cells, run 2, N=161, three CAM exposures) is reported as 103±80.

With `COc1ccc(CCN(C)CCCC(C#N)(c2ccc(OC)c(OC)c2)C(C)C)cc1OC` (centres unmarked) [verapamil] the “calcein accumulation in selected single cells on exposure to modulator” value (MCF-7 ADR (MDR) cells) was “do not accumulate calcein until verapamil (V) exposure”.

In the case of “SEQ ID NO:1: 18-mer TCTC CCAG CGTG CGCC AT, anti-sense to the first six codons of the open reading frame of bcl-2 (antisense TCTCCCAGCGTGCGCCAT; chemistry not given here; listed as Homo sapiens)”, the “efficacy against DoHH2 lymphoma” value (DoHH2 lymphoma) is listed as “has shown efficacy”.

For “SEQ ID NO:2: 15-mer peptide nucleic acid oligodeoxyribonucleotide CCCC AGCC CCTA CCC (CCCCAGCCCCTACCC; all peptide nucleic acid (PNA); further chemistry not fully specified; listed as Homo sapiens)”, the “block of mRNA translation” value (mRNA translation) is given as “complete block”.

For “SEQ ID NO:3: 15-mer peptide nucleic acid oligodeoxyribonucleotide AGCG TGCG CCAT CCC (AGCGTGCGCCATCCC; all peptide nucleic acid (PNA); further chemistry not fully specified; listed as Homo sapiens)”, the “block of mRNA translation” value (mRNA translation) is listed as “complete block”.

With calcein-AM [CAM] the “time for cells to accumulate sufficient CAM to reach the specified average MI threshold” value (MCF-7 WTC cells) was 13.9 min.
